Test results as given in US10150758B2, “PRMT5 inhibitors and uses thereof” (Epizyme, Inc., priority 2012, dated 2018).

Target: PRMT5/MEP50 (Homo sapiens (Human), UniProt O14744)
Assay: PRMT5 Biochemical Assay (PRMT5/MEP50 enzyme assay on peptide substrate, 3H-SAM Flashplate)
Conditions: PRMT5/MEP50 4 nM, 3H-SAM 75 nM, peptide 40 nM
Excerpt: S-adenosylmethionine (SAM), S-adenosylhomocysteine (SAH), bicine, KCl, Tween20, dimethylsulfoxide (DMSO), bovine skin gelatin (BSG), and Tris(2-carboxyethyl)phosphine hydrochloride solution (TCEP) were purchased from Sigma-Aldrich at the highest level of purity possible. ^3H-SAM was purchase from American Radiolabeled Chemicals with a specific activity of 80 Ci/mmol. 384-well streptavidin Flashplates were purchased from PerkinElmer.
Peptide representative of human histone H4 residues 1-15 was synthesized with a C-terminal linker-affinity tag motif and a C-terminal amide cap by 21st Century Biochemicals. The peptide was high high-perfomance liquid chromatography (HPLC) purified to greater than 95% purity and confirmed by liquid chromatography mass spectrometry (LC-MS). The sequence was Ac-[…][K-Biot]-amide (SEQ ID NO.:3).
Full-length human PRMT5 (NM_006109.3) transcript variant 1 clone was amplified from a fetal brain cDNA library, incorporating flanking 5′ sequence encoding a FLAG tag ([…]) (SEQ ID NO.:4) fused directly to Ala 2 of PRMT5. Full-length human MEP50 (NM_024102) clone was amplified from a human testis cDNA library incorporating a 5′ sequence encoding a 6-histidine tag (MHHHHHH) (SEQ ID NO.:5) fused directly to Arg 2 of MEP50. The amplified genes were sublconed into pENTR/D/TEV (Life Technologies) and subsequently transferred by Gateway™ attL×attR recombination to pDEST8 baculvirus expression vector (Life Technologies).
Recombinant baculovirus and Baculovirus-Infected Insect Cells (BIIC) were generated according to Bac-to-Bac kit instructions (Life Technologies) and Wasilko, 2006, respectively. Protein over-expression was accomplished by infecting exponentially growing Spodoptera frugiperda (SF9) cell culture at 1.2×10^6 cell/ml with a 5000 fold dilution of BIIC stock. Infections were carried out at 27° C. for 72 hours, harvested by centrifugation, and stored at −80° C. for purification.
Flag-PRMT5/6His-MeP50 was eluted with 300 mM Imidazole in the same buffer. The purity of recovered protein was 87%. Reference: Wasilko, D. J. and S. E. Lee: “TIPS: titerless infected-cells preservation and scale-up” Bioprocess J., 5 (2006), pp. 29-32.
General Procedure for PRMT5/MEP50 Enzyme Assays on Peptide Substrates.
The assays were all performed in a buffer consisting of 20 mM Bicine (pH=7.6), 1 mM TCEP, 0.005% BSG, and 0.002% Tween20, prepared on the day of use. Compounds in 100% DMSO (1 ul) were spotted into a polypropylene 384-well V-bottom plates (Greiner) using a Platemate Plus outfitted with a 384-channel head (Thermo Scientific). DMSO (1 ul) was added to Columns 11, 12, 23, 24, rows A-H for the maximum signal control and 1 ul of SAH, a known product and inhibitor of PRMT5/MEP50, was added to columns 11, 12, 23, 24, rows I-P for the minimum signal control. A cocktail (40 ul) containing the PRMT5/MEP50 enzyme and the peptide was added by Multidrop Combi (Thermo-Fisher). The compounds were allowed to incubate with PRMT5/MEP50 for 30 min at 25 degrees Celsius, then a cocktail (10 ul) containing ^3H-SAM was added to initiate the reaction (final volume=51 ul). The final concentrations of the components were as follows: PRMT5/MEP50 was 4 nM, ^3H-SAM was 75 nM, peptide was 40 nM, SAH in the minimum signal control wells was 100 uM, and the DMSO concentration was 1%. The assays were stopped by the addition of non-radioactive SAM (10 ul) to a final concentration of 600 uM, which dilutes the ^3H-SAM to a level where its incorporation into the peptide substrate is no longer detectable. 50 ul of the reaction in the 384-well polypropylene plate was then transferred to a 384-well Flashplate and the biotinylated peptides were allowed to bind to the streptavidin surface for at least 1 hour before being washed three times with 0.1% Tween20 in a Biotek ELx405 plate washer. […]

Chain of PRMT5/MEP50 (O14744 other isoform, or with tags, fused parts or gaps): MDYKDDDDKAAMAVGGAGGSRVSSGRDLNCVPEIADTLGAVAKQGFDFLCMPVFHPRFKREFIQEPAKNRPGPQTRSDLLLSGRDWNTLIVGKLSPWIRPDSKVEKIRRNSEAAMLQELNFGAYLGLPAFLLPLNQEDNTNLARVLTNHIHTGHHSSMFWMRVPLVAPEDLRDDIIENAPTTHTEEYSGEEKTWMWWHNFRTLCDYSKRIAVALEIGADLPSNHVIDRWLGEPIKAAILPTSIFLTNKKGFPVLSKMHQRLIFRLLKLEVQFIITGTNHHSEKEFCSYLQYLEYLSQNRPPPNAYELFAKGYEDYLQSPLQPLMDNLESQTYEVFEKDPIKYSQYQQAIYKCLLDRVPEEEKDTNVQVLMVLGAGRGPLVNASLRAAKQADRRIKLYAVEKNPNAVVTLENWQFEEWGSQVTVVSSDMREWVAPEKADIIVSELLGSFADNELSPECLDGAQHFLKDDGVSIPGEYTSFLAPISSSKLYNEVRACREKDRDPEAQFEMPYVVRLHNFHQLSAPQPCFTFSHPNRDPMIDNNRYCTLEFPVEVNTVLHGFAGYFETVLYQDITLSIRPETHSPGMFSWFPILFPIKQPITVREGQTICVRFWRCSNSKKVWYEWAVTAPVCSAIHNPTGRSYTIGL
Chain of PRMT5/MEP50 (Q9BQA1 other isoform, or with tags, fused parts or gaps partner): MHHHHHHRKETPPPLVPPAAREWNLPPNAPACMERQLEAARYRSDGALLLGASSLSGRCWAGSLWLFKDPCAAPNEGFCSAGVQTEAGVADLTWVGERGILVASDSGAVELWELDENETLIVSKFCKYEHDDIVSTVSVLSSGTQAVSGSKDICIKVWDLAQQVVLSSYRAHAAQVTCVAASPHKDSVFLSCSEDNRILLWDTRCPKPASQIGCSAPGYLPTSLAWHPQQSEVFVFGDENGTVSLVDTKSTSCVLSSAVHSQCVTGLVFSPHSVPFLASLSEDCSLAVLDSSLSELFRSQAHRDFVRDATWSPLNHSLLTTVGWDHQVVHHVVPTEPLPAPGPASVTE

| SMILES | IC50 |
| --- | --- |
| O=C1Cc2ccccc2N1CC(O)CN1CCc2ccccc2C1 (centres unmarked) [Compound 1, 1-(3-(3,4-dihydroisoquinolin-2(1H)-yl)-2-hydroxypropyl)indolin-2-one] | 101 to 1000 nM |
| O=C1CN(c2cccc3cccnc23)CCN1CC(O)CN1CCc2ccccc2C1 (centres unmarked) [Compound 4, 1-(3-(3,4-dihydroisoquinolin-2(1H)-yl)-2-hydroxypropyl)-4-(quinolin-8-yl)piperazin-2-one] | < 100 nM |
| O=C1CN(c2cccc(F)c2)CCN1CC(O)CN1CCc2ccccc2C1 (centres unmarked) [Compound 6] | < 100 nM |
| O=C1CN(c2ccc(Cl)cc2)CCN1CC(O)CN1CCc2ccccc2C1 (centres unmarked) [Compound 7, 4-(4-chlorophenyl)-1-(3-(3,4-dihydroisoquinolin-2(1H)-yl)-2-hydroxypropyl)piperazin-2-one] | < 100 nM |
| O=C1CN(c2cncc(N3CCOCC3)c2)CCN1CC(O)CN1CCc2ccccc2C1 (centres unmarked) [Compound 8, 1-(3-(3,4-dihydroisoquinolin-2(1H)-yl)-2-hydroxypropyl)-4-(5-morpholinopyridin-3-yl)piperazin-2-one] | < 100 nM |
| O=C1CN(c2ccccc2Cl)CCN1CC(O)CN1CCc2ccccc2C1 (centres unmarked) [Compound 9] | 101 to 1000 nM |
| O=C1CN(c2cccc(N3CCOCC3)c2)CCN1CC(O)CN1CCc2ccccc2C1 (centres unmarked) [Compound 12, 1-(3-(3,4-dihydroisoquinolin-2(1H)-yl)-2-hydroxypropyl)-4-(3-morpholinophenyl)piperazin-2-one] | < 100 nM |
| Cc1ccc(N2CCN(CC(O)CN3CCc4ccccc4C3)C(=O)C2)cc1 (centres unmarked) [Compound 15, 1-(3-(3,4-dihydroisoquinolin-2(1H)-yl)-2-hydroxypropyl)-4-(p-tolyl)piperazin-2-one] | 101 to 1000 nM |
| O=c1cc(Nc2ccccc2)ccn1C[C@H](O)CN1CCc2ccccc2C1 [Compound 19, (R)-1-(3-(3,4-dihydroisoquinolin-2(1H)-yl)-2-hydroxypropyl)-4-(phenylamino)pyridin-2(1H)-one] | 101 to 1000 nM |
| CN(C)c1ccccc1N1CCN(C[C@H](O)CN2CCc3ccccc3C2)C(=O)C1 [Compound 29] | 101 to 1000 nM |
| O=C1COc2ccccc2N1CC(O)CN1CCc2ccccc2C1 (centres unmarked) [Compound 31, 4-(3-(3,4-dihydroisoquinolin-2(1H)-yl)-2-hydroxypropyl)-2H-benzo[b][1,4]oxazin-3(4H)-one] | 101 to 1000 nM |
